pKd: −log10 of the molar value.
Biological target: T1, cathepsin C (CatC; dipeptidyl peptidase 1) (Homo sapiens, UniProt P53634)
T1 construct: gene CTSC
Experiment: surface plasmon resonance with isolated human CatC (pH […]); enzymatic IC50 […]
Type: binding

T1 sequence (P53634 25-134): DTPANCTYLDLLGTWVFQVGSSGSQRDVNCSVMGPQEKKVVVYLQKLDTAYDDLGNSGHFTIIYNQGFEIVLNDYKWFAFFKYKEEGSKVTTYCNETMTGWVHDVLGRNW
T1 sequence (P53634 231-394): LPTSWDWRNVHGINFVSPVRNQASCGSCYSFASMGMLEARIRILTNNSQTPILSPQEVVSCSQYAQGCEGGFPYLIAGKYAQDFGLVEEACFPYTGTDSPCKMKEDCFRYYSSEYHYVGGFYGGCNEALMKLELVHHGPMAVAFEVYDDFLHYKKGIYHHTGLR
T1 sequence (P53634 395-463): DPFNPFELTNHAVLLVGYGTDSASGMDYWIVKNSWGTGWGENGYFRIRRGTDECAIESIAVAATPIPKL

BI 1291583
pKd: 9.37

From PMC10962448, “The preclinical and phase 1 development of the novel oral cathepsin C inhibitor BI 1291583” (ERJ Open Research, 2024)
